From US8048918B2, “Treatment of hyperproliferative diseases” (Vampex Limited, priority 2000, dated 2011)
Where no end group is shown, it is not given here.

Legend:
[1] = tested on: normal human epidermal keratinocytes; assay: proliferation assay on normal human epidermal keratinocytes; type: cell-based
Procedure: Pieces of skin are washed thoroughly for 30 minutes in Betadine solution (10% iodine) followed by 2×10 minute washes in PBS. After removal of the subcutaneous tissue and dermis with a scalpel the skin is dissected into 5×10 mm pieces. The skin pieces are rinsed 5× in PBS followed by incubating in Dispase (grade 11, 2.4 U/ml, Boehringer Mannheim) for 18 hours at4° C.
The skin pieces are then placed dermis side down in 100 mm Petri dishes and are irrigated with 5 ml KSFM. The epidermis is peeled off with forceps and incubated in 10 ml 1× Trypsin/EDTA solution for 10 minutes at 37° C. followed by addition of 10 ml KSFM. The sample is mechanically agitated by aspiration and ejection from a transfer pipette. The resulting cell suspension is sieved using a cell strainer (Becton Dickinson) rinsing through with KSFM. The isolated epidermal cells are then washed twice in KSFM by centrifugation at 100 g for 10 min. Cells are seeded as below.
(§1) Primary cultures were seeded at 3500 cells/cm^2 in K-SFM 25 cm^2 tissue culture flasks. The medium was changed (5 ml per flask) the day after seeding and every other day thereafter. At 70-80% confluence the cells were subcultured by seeding 3500 cells/cm^2 in new 25 cm^2 flasks. On the day that the subcultures reached confluence the medium was switched to medium containing the experimental treatments.
(§2) The cells were cultured for 4 days, replacing the experimental medium every other day, before harvesting the cells.
Cell Seeding and Analysis: Purchased secondary cultures or primary cultures (from donor skin) are seeded at 3500 cells/cm^2 in K-SFM 25 cm^2 tissue culture flasks. The medium is changed (5 ml per flask) the day after seeding and every other day thereafter. […]
The medium is replaced every other day. […] The cell suspension is added to 20 ml Isoton solution in a Coulter counter “Accuvette” and the cells are counted. On each harvest, 3 wells of cells are counted for each treatment and 3 counts were made for each well.
Cell number is calculated as follows: Coulter Counter removes 500 μl of 20 ml sample ( 1/40). […]

[2] = tested on: normal human epidermal keratinocytes; assay: differentiation assay (K1/K10) on normal human epidermal keratinocytes; type: cell-based; conditions: for differentiation: Carbenoxolone 6 μM, Disulfiram 15 μM or Citral 10 μM, 1.2 mM calcium, FIG. 11
Procedure: as §1, §2
RNA extraction is carried out according to the manufacturers instructions using the RNeasy kit (QIAGEN). 20 μg of RNA for each treatment was separated on a 1.2% agarose (1.8% formaldehyde) gel and transferred onto a nylon membrane (Zeta probe GT membranes, BioRad) by capillary transfer. The RNA is fixed to the membrane by UV crosslinking. DNA probes for the differentiation markers K1 and K10(50 ng) are labelled with [α-^32P] dCTP using the Prime-It RmT Primer labeling kit (Stratagene) following the manufacturer's instructions. Unincorporated nucleotides are removed by elution through a Microspin G25 column (Pharmacia Biotech). The blots are wetted in 0.25M sodium phosphate (pH 7.2)/7% SDS for 30 minutes at 65° C. Fresh hybridisation solution is added along with the radiolabelled probe and the blot is hybridised overnight at 65° C.
The blot is washed for 2×5 minutes in 0.25M sodium phosphate (pH 7.2), 7% SDS and then for 2×5 minutes in 20 mM sodium phosphate (pH 7.2), 5% SDS at 65° C. The wash steps are repeated until a clear distinction can be made between the signal and non-specific background. The blot is exposed to x-ray film for 24 hours before developing.
Synthesis of mRNA for the K1 and K10 keratin (markers for commitment to terminal differentiation) is examined by quantitative reverse transcription PCR (RT-PCR). Synthesis of mRNA for Cyclin D (a marker for cell proliferation) is also assayed by RT-PCR. […] The RNA is blotted onto a nylon membrane by capillary transfer and expression of K1 mRNA is determined by Northern hybridisation with a radiolabelled DNA probe. […]

[3] = Carbenoxolone 6 μM, Disulfiram 15 μM or Citral 10 μM

Row | Molecule | proliferation [1, 3] | differentiation [2] | proliferation ([1]; peptide 6 μM, RBP 0.6 μM, Ca 1.2 mM) | differentiation (expression of K1 and K10 markers) ([2]; peptide 6 μM, RBP 0.6 μM, Ca 1.2 mM, FIG. 6)
1 | CC1(C)[C@@H](OC(=O)CCC(=O)O)CC[C@]2(C)[C@H]3C(=O)C=C4[C@@H]5C[C@@](C)(C(=O)O)CC[C@]5(C)CC[C@@]4(C)[C@]3(C)CC[C@@H]12 [Carbenoxolone] | inhibit proliferation | increase differentiation |  | 
2 | GRVRLLNNWDVCA |  |  | reduces proliferation | enhances the expression of K1 and K10 markers
3 | CC(C)=CCCC(C)=CC=O [Citral, 3,7-dimethyl-2,6-octadienal] | inhibit proliferation | increase differentiation |  | 
